Patent publication US20230081426A1, “COMPOUNDS AND METHODS FOR KRAS MODULATION AND INDICATIONS THEREFOR” (Plexxikon Inc., priority 2020, published 2023)

Columns and labels:
[1] = biological target: T1, G12V-mutant human KRAS (amino acid residues 1-188) (Homo sapiens, UniProt P01116, G12V); experiment: KRAS Binding Competition Assay (AlphaScreen; biotinylated KRpep-2d analogue), G12V; conditions: geometric mean, read-out: KRAS GMean IC50 (uM) MUTATION: G12V
T1 construct: G12V-mutant human KRAS (amino acid residues 1-188) with FLAG tag was purified from E. coli; made in house; host or cells: E. coli

[2] = biological target: T2, G12D-mutant human KRAS (amino acid residues 1-188) (Homo sapiens, UniProt P01116, G12D); experiment: KRAS Binding Disruption Assay (AlphaScreen; biotinylated KRpep-2d analogue or RAF1-RBD), G12D; conditions: KRAS G12D; geometric mean; read-out: KRAS GMean IC50 (uM) MUTATION: G12D
T2 construct: G12D or G12C-mutant human KRAS (amino acid residues 1-188) with FLAG tag; made in house; host or cells: E. coli
How it was run: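 AlphaScreen readout: signal falls as compound displaces biotinylated KRpep-2d analogue or RAF1-RBD from mutant KRAS. Both partners at 5-20 nM, 1 h binding at 25° C, then 10 μg/mL Anti-Flag acceptor and streptavidin donor beads for 1 h. IC50 by nonlinear regression of % inhibition.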

IC50 [1] [µM]	IC50 [2] [µM]	Structure (SMILES)
0.0001 to 10	0.0001 to 10	Oc1cc(-c2ccc3c(N4C[C@H]5CC[C@@H](C4)N5)nc(OCC45CCCN4CCC5)nc3c2Cl)c2ccccc2c1 [P-0003, 4-(4-((1R,5S)-3,8-diazabicyclo[3.2.1]octan-3-yl)-8-chloro-2-((tetrahydro-1H-pyrrolizin-7a(5H)-yl)methoxy)quinazolin-7-yl)naphthalen-2-ol]
0.0001 to 10	0.0001 to 10	CN1CCC[C@H]1COc1nc(N2C[C@H]3CC[C@@H](C2)N3C(=O)CCS(N)(=O)=O)c2ccc(-c3cc(O)cc4ccccc34)c(F)c2n1 [P-0105, 3-((1R,5S)-3-(8-fluoro-7-(3-hydroxynaphthalen-1-yl)-2-(((S)-1-methylpyrrolidin-2-yl)methoxy)quinazolin-4-yl)-3,8-diazabicyclo[3.2.1]octan-8-yl)-3-oxopropane-1-sulfonamide]
10 to 100	100 to 1000	Cc1n[nH]c2cc(-c3ccc4c(N5C[C@H]6CC[C@@H](C5)N6)nc(OC[C@@H]5CCCN5C)nc4c3)ccc12 [P-0183, 4-((1R,5S)-3,8-diazabicyclo[3.2.1]octan-3-yl)-7-(3-methyl-1H-indazol-6-yl)-2-(((S)-1-methylpyrrolidin-2-yl)methoxy)quinazoline]
0.0001 to 10	0.0001 to 10	CN1CCC[C@H]1COc1nc(N2C[C@H]3CC[C@@H](C2)N3C(=O)CCC(N)=O)c2ccc(-c3cc(O)cc4ccccc34)c(F)c2n1 [P-0399, 4-((1R,5S)-3-(8-fluoro-7-(3-hydroxynaphthalen-1-yl)-2-(((S)-1-methylpyrrolidin-2-yl)methoxy)quinazolin-4-yl)-3,8-diazabicyclo[3.2.1]octan-8-yl)-4-oxobutanamide]
10 to 100	10 to 100	CN1CCN(CCNC(=O)N2C[C@H]3CC[C@@H](C2)N3c2nc(OC[C@@H]3CCCN3C)nc3cc(-c4cc(O)cc5ccccc45)ccc23)CC1 [P-0209, (1R,5S)-8-(7-(3-hydroxynaphthalen-1-yl)-2-(((S)-1-methylpyrrolidin-2-yl)methoxy)quinazolin-4-yl)-N-(2-(4-methylpiperazin-1-yl)ethyl)-3,8-diazabicyclo[3.2.1]octane-3-carboxamide]
0.0001 to 10	0.0001 to 10	CS(=O)(=O)CC(=O)N1[C@@H]2CC[C@H]1CN(c1nc(OCC34CCCN3CCC4)nc3c(F)c(-c4cc(O)cc5ccccc45)ccc13)C2 [P-0432, 1-((1R,5S)-3-(8-fluoro-7-(3-hydroxynaphthalen-1-yl)-2-((tetrahydro-1H-pyrrolizin-7a(5H)-yl)methoxy)quinazolin-4-yl)-3,8-diazabicyclo[3.2.1]octan-8-yl)-2-(methylsulfonyl)ethan-1-one]
0.0001 to 10	0.0001 to 10	O=S(=O)(N[C@@H]1CCNC1)N1[C@@H]2CC[C@H]1CN(c1nc(OCC34CCCN3CCC4)nc3c(F)c(-c4cc(O)cc5ccccc45)ccc13)C2 [P-0284, (1R,5S)-3-(8-fluoro-7-(3-hydroxynaphthalen-1-yl)-2-((tetrahydro-1H-pyrrolizin-7a(5H)-yl)methoxy)quinazolin-4-yl)-N-((R)-pyrrolidin-3-yl)-3,8-diazabicyclo[3.2.1]octane-8-sulfonamide]
10 to 100	10 to 100	CN(C)c1ccc(/C=C/c2nc(N3[C@@H]4CC[C@H]3CNC4)c3ccc(-c4cc(O)cc5ccccc45)cc3n2)cc1 [P-0244, 4-(4-((1R,5S)-3,8-diazabicyclo[3.2.1]octan-8-yl)-2-((E)-4-(dimethylamino)styryl)quinazolin-7-yl)naphthalen-2-ol]
10 to 100	0.0001 to 10	Cc1cc(C(=O)N2[C@@H]3CC[C@H]2CN(c2nc(OCC45CCCN4CCC5)nc4cc(-c5cc(O)cc6ccccc56)ccc24)C3)[nH]c(=O)n1 [P-0109, 6-((1R,5S)-3-(7-(3-hydroxynaphthalen-1-yl)-2-((tetrahydro-1H-pyrrolizin-7a(5H)-yl)methoxy)quinazolin-4-yl)-3,8-diazabicyclo[3.2.1]octane-8-carbonyl)-4-methylpyrimidin-2(1H)-one]
10 to 100	10 to 100	CN1CCC[C@H]1COc1nc(N2[C@@H]3CC[C@H]2CN(C(=O)CCCn2ccnc2)C3)c2ccc(-c3cc(O)cc4ccccc34)cc2n1 [P-0195, 1-((1R,5S)-8-(7-(3-hydroxynaphthalen-1-yl)-2-(((S)-1-methylpyrrolidin-2-yl)methoxy)quinazolin-4-yl)-3,8-diazabicyclo[3.2.1]octan-3-yl)-4-(1H-imidazol-1-yl)butan-1-one]
10 to 100	0.0001 to 10	CN1CCC[C@H]1COc1nc(N2C[C@H]3CC[C@@H](C2)N3)c2cc(Cl)c(-c3cc(O)cc4ccccc34)cc2n1 [P-0043, 4-(4-((1R,5S)-3,8-diazabicyclo[3.2.1]octan-3-yl)-6-chloro-2-(((S)-1-methylpyrrolidin-2-yl)methoxy)quinazolin-7-yl)naphthalen-2-ol]
10 to 100	0.0001 to 10	Oc1cccc(F)c1-c1c(Cl)cc2c(N3C[C@H]4CC[C@@H](C3)N4)nc(OCC34CCCN3CCC4)nc2c1F [P-0392, 2-(4-((1R,5S)-3,8-diazabicyclo[3.2.1]octan-3-yl)-6-chloro-8-fluoro-2-((tetrahydro-1H-pyrrolizin-7a(5H)-yl)methoxy)quinazolin-7-yl)-3-fluorophenol]
10 to 100	100 to 1000	CN1CCC[C@H]1COc1nc(N2[C@@H]3CC[C@H]2CN(C(=O)CC(=O)O)C3)c2ccc(-c3cc(O)cc4ccccc34)cc2n1 [P-0324, 3-((1R,5S)-8-(7-(3-hydroxynaphthalen-1-yl)-2-(((S)-1-methylpyrrolidin-2-yl)methoxy)quinazolin-4-yl)-3,8-diazabicyclo[3.2.1]octan-3-yl)-3-oxopropanoic acid]
10 to 100	0.0001 to 10	CN1CCN(C(=O)CN2C[C@H]3CC[C@@H](C2)N3c2nc(OC[C@@H]3CCCN3C)nc3cc(-c4cc(O)cc5ccccc45)ccc23)CC1 [P-0277, 2-((1R,5S)-8-(7-(3-hydroxynaphthalen-1-yl)-2-(((S)-1-methylpyrrolidin-2-yl)methoxy)quinazolin-4-yl)-3,8-diazabicyclo[3.2.1]octan-3-yl)-1-(4-methylpiperazin-1-yl)ethan-1-one]
0.0001 to 10	0.0001 to 10	CN1CCC[C@H]1COc1nc(N2[C@@H]3CC[C@H]2CN(C(=O)Nc2cnc[nH]2)C3)c2ccc(-c3cc(O)cc4ccccc34)cc2n1 [P-0347, (1R,5S)-8-(7-(3-hydroxynaphthalen-1-yl)-2-(((S)-1-methylpyrrolidin-2-yl)methoxy)quinazolin-4-yl)-N-(1H-imidazol-5-yl)-3,8-diazabicyclo[3.2.1]octane-3-carboxamide]
0.0001 to 10	10 to 100	CN1CCC[C@H]1COc1nc(N2CC[C@@H]3CC[C@H](C2)N3C(=O)NC2CCOC2)c2ccc(-c3cc(O)cc4ccccc34)c(F)c2n1 (stereo partly drawn) [P-0248, (1R,6 S)-3-(8-fluoro-7-(3-hydroxynaphthalen-1-yl)-2-(((S)-1-methylpyrrolidin-2-yl)methoxy)quinazolin-4-yl)-N-(tetrahydrofuran-3-yl)-3,9-diazabicyclo[4.2.1]nonane-9-carboxamide]
10 to 100	0.0001 to 10	CN1CCC[C@H]1COc1nc(N2C[C@@H]3C[C@H]2CN3)c2cc(Cl)c(-c3cc(O)cc4ccccc34)c(F)c2n1 [P-0042, 4-(4-((1S,4S)-2,5-diazabicyclo[2.2.1]heptan-2-yl)-6-chloro-8-fluoro-2-(((S)-1-methylpyrrolidin-2-yl)methoxy)quinazolin-7-yl)naphthalen-2-ol]
10 to 100	10 to 100	CN1CCC[C@H]1COc1nc(N2[C@@H]3CC[C@H]2CNC3)c2ccc(-c3c(Cl)cccc3Cl)cc2n1 [P-0264, 4-((1R,5S)-3,8-diazabicyclo[3.2.1]octan-8-yl)-7-(2,6-dichlorophenyl)-2-(((S)-1-methylpyrrolidin-2-yl)methoxy)quinazoline]
10 to 100	0.0001 to 10	CN(C)C1(C)CN(c2nc(N3C[C@H]4CC[C@@H](C3)N4)c3ccc(-c4cc(O)cc5ccccc45)c(F)c3n2)C1 [P-0635, 4-(4-((1R,5S)-3,8-diazabicyclo[3.2.1]octan-3-yl)-2-(3-(dimethylamino)-3-methylazetidin-1-yl)-8-fluoroquinazolin-7-yl)naphthalen-2-ol]
10 to 100	0.0001 to 10	COc1cccc(F)c1-c1c(Cl)cc2c(N3C[C@H]4CC[C@@H](C3)N4)nc(OC3CCN(C)CC3)nc2c1F [P-0330, 4-((1R,5S)-3,8-diazabicyclo[3.2.1]octan-3-yl)-6-chloro-8-fluoro-7-(2-fluoro-6-methoxyphenyl)-2-((1-methylpiperidin-4-yl)oxy)quinazoline]
10 to 100	0.0001 to 10	CN1CCC[C@H]1COc1nc(N2C[C@H]3CC[C@@H](C2)N3C(=O)[C@@H](N)CO)c2ccc(-c3cc(O)cc4ccccc34)c(F)c2n1 [P-0424, (S)-2-amino-1-((1R,5S)-3-(8-fluoro-7-(3-hydroxynaphthalen-1-yl)-2-(((S)-1-methylpyrrolidin-2-yl)methoxy)quinazolin-4-yl)-3,8-diazabicyclo[3.2.1]octan-8-yl)-3-hydroxypropan-1-one]
10 to 100	0.0001 to 10	CN1CCC[C@H]1COc1nc(N2C[C@H]3CC[C@@H](C2)N3CC(=O)C2CCNCC2)c2ccc(-c3cc(O)cc4ccccc34)c(F)c2n1 [P-0467, 2-((1R,5S)-3-(8-fluoro-7-(3-hydroxynaphthalen-1-yl)-2-(((S)-1-methylpyrrolidin-2-yl)methoxy)quinazolin-4-yl)-3,8-diazabicyclo[3.2.1]octan-8-yl)-1-(piperidin-4-yl)ethan-1-one]
